From BindingDB's records for doi:10.7270/Q2CV4GM1 (D3R/Abbott, 2015)
Where “and” joins values, the source holds several entries; their conditions need not be identical. Equal values may be shown once.

Target: T1, Tyrosine-protein kinase SYK [355-635] (Homo sapiens, UniProt P43405)
T1 construct: 355-635
Test: SYK assay_HTRF

Structure (SMILES)	IC50
O=c1[nH]c2ccc(Nc3nccc(N(CCCO)c4cccc5[nH]ncc45)n3)cc2[nH]1 [GTC000256A]	5.01 nM
COCCCN(c1ccnc(Nc2ccc3nn[nH]c3c2)n1)c1cccc2[nH]ncc12 [GTC000257A]	5.04 nM
O=C1Nc2ccc(Nc3nccc(N(CCO)c4cccc5[nH]ncc45)n3)cc2CO1 [GTC000258A]	5 nM
NS(=O)(=O)c1cccc(Nc2nccc(N(CCCO)c3cccc4[nH]ncc34)n2)c1 [GTC000259A]	5.02 nM
CCN(c1nc(Nc2ccc(C(N)=O)cc2)ncc1F)c1cccc2[nH]ncc12 [GTC000260A]	5.48 nM
CCN(c1nc(Nc2ccc(S(N)(=O)=O)cc2)ncc1F)c1cccc2[nH]ncc12 [GTC000261A]	5.04 nM
O=c1[nH]c2ccc(Nc3ncc(F)c(N(CCCO)c4cccc5[nH]ncc45)n3)cc2[nH]1 [GTC000262A]	5.09 nM
COCCCN(c1nc(Nc2ccc3[nH]c(=O)[nH]c3c2)ncc1F)c1cccc2[nH]ncc12 [GTC000263A]	4.86 nM
CN(c1nc(Nc2ccc3[nH]c(=O)[nH]c3c2)ncc1F)c1cccc2[nH]ncc12 [GTC000264A]	5.3 nM
CN(c1nc(Nc2ccc3nn[nH]c3c2)ncc1F)c1cccc2[nH]ncc12 [GTC000265A]	5.6 nM
CCN(c1nc(Nc2ccc3nn[nH]c3c2)ncc1F)c1cccc2[nH]ncc12 [GTC000267A]	6.27 nM
CCN(c1nc(Nc2ccc3c(c2)COC(=O)N3)ncc1F)c1cccc2[nH]ncc12 [GTC000268A]	6.76 nM
NCCCCCN(c1ccnc(Nc2ccc3[nH]c(=O)[nH]c3c2)n1)c1cccc2[nH]ncc12 [GTC000269A]	6.97 nM
Cn1ncc2ccc(Nc3nccc(N(CCCO)c4cccc5[nH]ncc45)n3)cc21 [GTC000270A]	6.95 nM
CCN(c1nc(Nc2ccc(C(=O)NC)cc2)ncc1F)c1cccc2[nH]ncc12 [GTC000271A]	6.62 nM
CCN(c1nc(Nc2ccc3c(c2)CC(=O)N3)ncc1F)c1cccc2[nH]ncc12 [GTC000272A]	6.95 nM
COCCCN(c1nc(Nc2ccc3c(c2)COC(=O)N3)ncc1F)c1cccc2[nH]ncc12 [GTC000273A]	6.78 nM
Cn1ncc2ccc(Nc3nccc(N(CCCCO)c4cccc5[nH]ncc45)n3)cc21 [GTC000274A]	5.89 nM
OCCCCN(c1ccnc(Nc2ccc3nn[nH]c3c2)n1)c1cccc2[nH]ncc12 [GTC000275A]	6.08 nM
CN(c1nc(Nc2ccc3cnn(C)c3c2)ncc1F)c1cccc2[nH]ncc12 [GTC000276A]	5.98 nM
CCN(c1nc(Nc2ccc3c(c2)S(=O)(=O)CC3)ncc1F)c1cccc2[nH]ncc12 [GTC000277A]	7.19 nM and 7.62 nM

Structure (SMILES)	IC50
O=S1(=O)CCc2ccc(Nc3ncc(F)c(N(CC4CCCO4)c4cccc5[nH]ncc45)n3)cc21 (stereo unspecified) [GTC000278A]	7.98 nM
COCCCN(c1nc(Nc2ccc3c(C)nn(CCCO)c3c2)ncc1F)c1cccc2[nH]ncc12 [GTC000279A]	7.52 nM
NCCCCN(c1ccnc(Nc2ccc3[nH]c(=O)[nH]c3c2)n1)c1cccc2[nH]ncc12 [GTC000280A]	7.4 nM
NC(=O)c1cccc(Nc2nccc(N(CCO)c3cccc4[nH]ncc34)n2)c1 [GTC000281A]	7.19 nM
CCN(c1nc(Nc2cccc(O)c2)ncc1F)c1cccc2[nH]ncc12 [GTC000282A]	7.94 nM
CCN(c1nc(Nc2ccc3c(c2)[nH]c(=O)n3C)ncc1F)c1cccc2[nH]ncc12 [GTC000283A]	8.13 nM
NS(=O)(=O)c1cccc(Nc2ncc(F)c(N(CCCO)c3cccc4[nH]ncc34)n2)c1 [GTC000284A]	8.79 nM
COCCN(c1ccnc(Nc2ccc3c(c2)S(=O)(=O)NC3)n1)c1cccc2[nH]ncc12 [GTC000285A]	8.34 nM
Cc1ncoc1-c1cccc(Nc2nccc(N(CCCCO)c3cccc4[nH]ncc34)n2)c1 [GTC000286A]	7.64 nM
Cn1ncc2cc(Nc3nccc(N(CCCCO)c4cccc5[nH]ncc45)n3)ccc21 [GTC000287A]	8.05 nM
CS(=O)(=O)NCCCCN(c1ccnc(Nc2ccc3[nH]c(=O)[nH]c3c2)n1)c1cccc2[nH]ncc12 [GTC000288A]	19.8 nM and 5.42 nM
CCN(c1nc(Nc2ccc3c(c2)S(=O)(=O)N(C)C3)ncc1F)c1cccc2[nH]ncc12 [GTC000289A]	13.7 nM and 5.32 nM and 16.3 nM
CCN(c1nc(Nc2ccc3[nH]c(=O)[nH]c3c2)ncc1Cl)c1cccc2[nH]ncc12 [GTC000290A]	6.7 nM and 12.6 nM
CCN(CC)CCCN(c1ccnc(Nc2ccc3c(c2)S(=O)(=O)NC3)n1)c1cccc2[nH]ncc12 [GTC000291A]	11.5 nM and 7.21 nM
O=c1[nH]c2ccc(Nc3nccc(N(CC4CCNCC4)c4cccc5[nH]ncc45)n3)cc2[nH]1 [GTC000292A]	10.8 nM
NCCCN(c1ccnc(Nc2ccc3[nH]c(=O)[nH]c3c2)n1)c1cccc2[nH]ncc12 [GTC000293A]	9.29 nM
COCCCN(c1nc(Nc2ccc3c(cnn3C)c2)ncc1F)c1cccc2[nH]ncc12 [GTC000294A]	10.2 nM
OCCCN(c1nc(Nc2ccc3nn[nH]c3c2)ncc1F)c1cccc2[nH]ncc12 [GTC000295A]	9.53 nM
COC(=O)CCCCN(c1ccnc(Nc2ccc3c(c2)S(=O)(=O)NC3)n1)c1cccc2[nH]ncc12 [GTC000296A]	5.04 nM and 25.1 nM and 21.6 nM
COC(=O)CCCN(c1ccnc(Nc2ccc3c(c2)S(=O)(=O)NC3)n1)c1cccc2[nH]ncc12 [GTC000297A]	6.89 nM and 13.9 nM and 13.1 nM
COCCCN(c1nc(Nc2ccc3cnn(C)c3c2)ncc1F)c1cccc2[nH]ncc12 [GTC000298A]	10.7 nM and 15.6 nM and 15.1 nM

Structure (SMILES)	IC50
CCN(c1nc(Nc2ccc3cnn(CCCCO)c3c2)ncc1F)c1cccc2[nH]ncc12 [GTC000299A]	13.9 nM
CCN(c1nc(Nc2cccc(S(C)(=O)=O)c2)ncc1F)c1cccc2[nH]ncc12 [GTC000300A]	11.3 nM
COCCCN(c1nc(Nc2cccc(S(N)(=O)=O)c2)ncc1F)c1cccc2[nH]ncc12 [GTC000301A]	12.1 nM
CCN(c1nc(Nc2ccc3c(c2)C(C)(C)C(=O)N3)ncc1F)c1cccc2[nH]ncc12 [GTC000302A]	13.2 nM
CN(c1nc(Nc2ccc3c(cnn3C)c2)ncc1F)c1cccc2[nH]ncc12 [GTC000303A]	11.5 nM
O=S1(=O)NCc2ccc(Nc3nccc(N(C[C@@H](O)CO)c4cccc5[nH]ncc45)n3)cc21 [GTC000304A]	13.6 nM
CCN(c1nc(Nc2ccc3c(cnn3C(C)C)c2)ncc1F)c1cccc2[nH]ncc12 [GTC000305A]	29.2 nM and 7.13 nM
CCN(c1nc(Nc2cccc(-c3cnco3)c2)ncc1F)c1cccc2[nH]ncc12 [GTC000306A]	9.02 nM and 16.6 nM and 26.1 nM
CCN(c1nc(Nc2ccc3c(c2)S(=O)(=O)N(CC)C3)ncc1F)c1cccc2[nH]ncc12 [GTC000307A]	16.2 nM and 14 nM
CS(=O)(=O)NCCCCCN(c1ccnc(Nc2ccc3[nH]c(=O)[nH]c3c2)n1)c1cccc2[nH]ncc12 [GTC000308A]	17.7 nM and 15.4 nM
NC(=O)c1cccc(Nc2nccc(N(CCCO)c3cccc4[nH]ncc34)n2)c1 [GTC000309A]	17.7 nM
CC(=O)NCCCCCN(c1ccnc(Nc2ccc3[nH]c(=O)[nH]c3c2)n1)c1cccc2[nH]ncc12 [GTC000310A]	16.4 nM
CS(=O)(=O)c1cccc(Nc2nccc(N(CCO)c3cccc4[nH]ncc34)n2)c1 [GTC000311A]	15.3 nM
CCNC(=O)c1ccc(Nc2ncc(F)c(N(CC)c3cccc4[nH]ncc34)n2)cc1 [GTC000312A]	16.1 nM
COCCN(c1ccnc(Nc2ccc3cnn(C)c3c2)n1)c1cccc2[nH]ncc12 [GTC000313A]	16.6 nM
O=S1(=O)NCc2ccc(Nc3nccc(N(CC(F)(F)F)c4cccc5[nH]ncc45)n3)cc21 [GTC000314A]	15.7 nM
COCCCN(c1nc(Nc2cccc(-c3ocnc3C)c2)ncc1F)c1cccc2[nH]ncc12 [GTC000315A]	16.3 nM
Cc1ncoc1-c1cccc(Nc2ncc(F)c(N(C)c3cccc4[nH]ncc34)n2)c1 [GTC000316A]	16.4 nM
CCN(c1nc(Nc2cccc(-c3cnco3)c2)ncc1Cl)c1cccc2[nH]ncc12 [GTC000317A]	9.93 nM and 24.8 nM and 41.3 nM
CCN(c1nc(Nc2cccc(C(N)=O)c2)ncc1F)c1cccc2[nH]ncc12 [GTC000318A]	13.4 nM and 35.2 nM
CCN(c1nc(Nc2ccc3c(c2)CCN3C(C)=O)ncc1F)c1cccc2[nH]ncc12 [GTC000319A]	18.2 nM

Structure (SMILES)	IC50
CCN(c1nc(Nc2cccc(-c3noc(C)n3)c2)ncc1F)c1cccc2[nH]ncc12 [GTC000320A]	21.4 nM
CCN(c1nc(Nc2ccc3[nH]c(=O)n(C)c3c2)ncc1F)c1cccc2[nH]ncc12 [GTC000321A]	21.2 nM
COCCN(c1ccnc(Nc2ccc3nn[nH]c3c2)n1)c1cccc2[nH]ncc12 [GTC000322A]	20.5 nM
COCCN(c1ccnc(Nc2cccc(-c3ocnc3C)c2)n1)c1cccc2[nH]ncc12 [GTC000323A]	21.5 nM
COCCCN(c1ccnc(Nc2cccc(C(N)=O)c2)n1)c1cccc2[nH]ncc12 [GTC000324A]	12.8 nM and 61.9 nM
CCN(c1nc(Nc2ccc3ncsc3c2)ncc1F)c1cccc2[nH]ncc12 [GTC000325A]	10.1 nM and 55.7 nM and 29.3 nM
CCN(c1nc(Nc2ccc3c(c2)C(=O)NC3)ncc1F)c1cccc2[nH]ncc12 [GTC000326A]	13.5 nM and 17.3 nM and 66.7 nM
CCN(c1nc(Nc2ccc3c(c2)S(=O)(=O)NC3)ncc1Br)c1cccc2[nH]ncc12 [GTC000327A]	12.1 nM and 21.5 nM and 43.8 nM
CCN(c1nc(Nc2ccc3cn[nH]c3c2)ncc1Cl)c1cccc2[nH]ncc12 [GTC000328A]	15.2 nM and 29.6 nM and 50.5 nM and 12.2 nM
CCN(CC)CCCN(c1ccnc(Nc2cccc(S(N)(=O)=O)c2)n1)c1cccc2[nH]ncc12 [GTC000329A]	23.2 nM and 12.7 nM and 55.7 nM and 25.3 nM
CCN(c1nc(Nc2ccc3c(c2)S(=O)(=O)N(CC2CC2)C3)ncc1F)c1cccc2[nH]ncc12 [GTC000330A]	36.2 nM and 19.4 nM
CCN(c1nc(Nc2cccc(N3CCN(C)CC3)c2)ncc1F)c1cccc2[nH]ncc12 [GTC000331A]	23.8 nM
CCN(CC)CCCN(c1ccnc(Nc2ccc3c(c2)C(=O)NS3(=O)=O)n1)c1cccc2[nH]ncc12 [GTC000332A]	23.9 nM
CCN(c1nc(Nc2ccc(CCO)cc2)ncc1F)c1cccc2[nH]ncc12 [GTC000333A]	27.3 nM
CCN(c1nc(Nc2ccc3cnn(C)c3c2)ncc1Cl)c1cccc2[nH]ncc12 [GTC000334A]	24 nM
COCCN(c1ccnc(Nc2cccc(S(N)(=O)=O)c2)n1)c1cccc2[nH]ncc12 [GTC000335A]	22.4 nM
COCCCN(c1nc(Nc2ccc3nn[nH]c3c2)ncc1F)c1cccc2[nH]ncc12 [GTC000336A]	25.6 nM
CN(c1nc(Nc2cccc(S(N)(=O)=O)c2)ncc1F)c1cccc2[nH]ncc12 [GTC000337A]	22.8 nM
